Values quoted from earlier work in patent US20060009656A1, “METHOD OF PRODUCING BETAINE COMPOUND” (priority 2004, published 2006).
Counter-ions that a name gives are not always drawn.

Conditions: as methyl supplier in feed

C[N+](C)(C)CC(=O)O [Betaine anhydrous, 2-(Trimethylammonio) ethanoic acid, hydroxide, inner salt]
effective value of organism relative to 50% choline chloride (relative to 50% choline chloride): 1.8 times
effective value of organism relative to DL-methionine (relative to DL-methionine): 3 times
